Reference: patent US8461186B2, “Use of N-piperidine derivatives for the treatment of neurodegenerative pathologies” (Medestea Research & Production S.p.A., priority 2004, dated 2013)

How the values were obtained:
[1] = system: rats receiving Paraquat into Substantia Nigra; assay type: in vivo, rat
Text: The Paraquat/rat/PS experimental model was therefore selected as the most indicative for checking the efficacy of chemical compounds according to the present invention; of these, two anti-oxidants designated MP1002 and MP1001 were used in the tests:
Male Sprague Dawley rats (210-220 g weight) were kept on a standard laboratory diet supplemented with “Nossan Pellets” (both the animals and the pellets are available from Nossan Company, Milan, Italy) and were housed for three weeks (relative humidity 50%±10%, temperature 22° C.±1 and in a light/darkness cycle of 12 hours/12 hours, with first light at 7.30 a.m.) prior to the tests; food and water were available ad libitum.
Prior to treatment, the rats were anaesthetized by intraperitoneal injection of 380 mg/kg weight of chloral hydrate; a stainless steel guide cannula (size 25) was implanted unilaterally in the Substantia Nigra with stereotaxic guiding and was secured to the cranium with dental acrylic material.
The animals (20 per test group) were allowed a recovery period of seven days prior to treatment; during this period no change in motor activity or posture was observed. Microinfusions were performed by means of a 10 μl Hamilton syringe connected to an injection cannula by means of a Teflon tube. The compounds or the vehicle (0.8% NaCl) were injected at a total volume of 1 μl/minute.
Microinfusion of 50 μg of Paraquat into the Substantia Nigra (n=20 rats) led to an increase in motor activity with the animals performing jumps and moving in circles in a contralateral direction relative to the injection position, about 24 minutes later; all of the animals were dead 24±2.5 hours after infusion. A further twenty animals were infused with Paraquat and twenty with Paraquat plus vehicle; about ten of the animals for each group survived 20 hours after treatment and were used to determine the development of lipid peroxidation in the Substantia Nigra.

[2] = system: lipid peroxidation in the Substantia Nigra; assay type: in vivo; conditions: Substantia Nigra, 20 hours after Paraquat alone, 50 μg microinfusion
Description: Microinfusion of 50 μg of Paraquat into the Substantia Nigra (n=20 rats) led to an increase in motor activity with the animals performing jumps and moving in circles in a contralateral direction relative to the injection position, about 24 minutes later; all of the animals were dead 24±2.5 hours after infusion. […]
[…]. Enzymol. 52, 302-310, 1978.

[3] = 50 μg Paraquat into the Substantia Nigra, n=20 rats
[4] = Paraquat alone, 50 μg microinfusion into Substantia Nigra

C[n+]1ccc(-c2cc[n+](C)cc2)cc1 [Paraquat, reference compound]
time after infusion at which all of the animals were dead [1, 3]: 24 ± 2.5 h | time to increase in motor activity (jumps, contralateral circling) after microinfusion [1, 3]: about 24 minutes | Duration (seizures) [1, 4]: 270 ± 15 min | Latency (seizures) [1, 4]: 25 ± 4 min | Mortality [1, 4]: 100 (20/20) % | Lipid Peroxidation [2]: 14.6 ± 1.34 nmol MDA × h^−1 × mg prot^−1
